We go through 10 molecules from ChEMBL document CHEMBL1201862, “PubChem BioAssay data set” (2004).

The structures appear in SMILES notation.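 Five compound concentrations were applied to cells in 96-well plates for 48 hours; endpoints were derived by simple linear interpolation of the resulting dose-response curve. GI50 is the concentration that inhibits growth by half.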 The source made the active and inactive calls. No stated cut-off is given here; in the data, active = GI50 up to about 1.1 µM and inactive = higher. A value given as a limit tells only on which side of the number the result lay.

Among the test systems are MDA-MB-231; T47D; MCF7; MOLT-4; BT-549; A549; M14; SK-MEL-5; HOP-92; CCRF-CEM; ACHN; OVCAR-3; SNB-19; DU-145; HT-29; K562; EKVX; SF-268; SR.
Holding throughout (assay): growth of human tumour cells (NCI), 48 h

As to `Oc1c(Cl)cc(CN(Cc2cc(Cl)c(O)c(Cl)c2)C2CCCCC2)cc1Cl`, the GI50 with MDA-MB-231, with T47D, in the assay on MCF7, in the assay on MOLT-4, with BT-549 and in the assay with A549 was > 100 µM (inactive) each time. In addition, the GI50 in the assay on M14 was > 100 µM (inactive); with SK-MEL-5 it was > 100 µM (inactive); with HOP-92 it was > 100 µM (inactive); in the assay with CCRF-CEM, < 0.01 µM (active); in the assay with ACHN, > 100 µM (inactive); in the assay on OVCAR-3, > 100 µM (inactive). The GI50 in the assay with SNB-19, in the assay with DU-145, in the assay on HT-29, in the assay with K562, in the assay on EKVX and with SF-268 was > 100 µM (inactive) in each case. Moreover, the GI50 with SR was > 100 µM (inactive).
As for `O=c1c2cc([N+](=O)[O-])ccc2n(Cc2ccccc2)n1Cc1ccccc1`, the GI50 in the assay on MDA-MB-231 is 12.6 µM (inactive); with T47D, 10.9 µM (inactive); in the assay with MCF7, 14 µM (inactive); with MOLT-4, 11.8 µM (inactive); in the assay with BT-549, 15.3 µM (inactive); in the assay with A549, 18.6 µM (inactive). Moreover, the GI50 with M14 was 13.1 µM (inactive); in the assay with SK-MEL-5 it was 4.75 µM (inactive); with HOP-92, 14.2 µM (inactive); in the assay with CCRF-CEM, 14.7 µM (inactive); in the assay on ACHN, 16.2 µM (inactive); in the assay on OVCAR-3, 15.6 µM (inactive). The GI50 was 29.6 µM (inactive) in the assay on SNB-19; 17.3 µM (inactive) in the assay with DU-145; 15.9 µM (inactive) in the assay with HT-29; 6.38 µM (inactive) in the assay with K562; 17.2 µM (inactive) with EKVX; 24.4 µM (inactive) in the assay on SF-268. Further, the GI50 in the assay with SR was 14 µM (inactive).
As to `CCOC(=O)c1cc2c(C(=O)c3ccc([N+](=O)[O-])cc3)c(C(C)=O)ccc2[nH]1`, the GI50 in the assay on MDA-MB-231 was 16.9 µM (inactive); with T47D it was 29.9 µM (inactive); in the assay with MCF7 it was > 100 µM (inactive); in the assay with MOLT-4, > 100 µM (inactive); in the assay on BT-549 it was 38.5 µM (inactive); in the assay with A549, 39.4 µM (inactive). The GI50 is > 100 µM (inactive) in the assay with M14; 16.6 µM (inactive) in the assay on SK-MEL-5; 13.2 µM (inactive) in the assay with HOP-92; > 100 µM (inactive) with CCRF-CEM; 28.7 µM (inactive) in the assay with ACHN; > 100 µM (inactive) with OVCAR-3. The GI50 with SNB-19 is 22.1 µM (inactive); in the assay on DU-145, 32.7 µM (inactive); in the assay on HT-29, > 100 µM (inactive); in the assay with K562 it was 26.7 µM (inactive); in the assay on EKVX, > 100 µM (inactive); in the assay on SF-268, 8.3 µM (inactive). Further, in the assay with SR, the GI50 was > 100 µM (inactive).
`CCOC(=O)CC(=O)C(=O)NN=C1NCCCN1`: the GI50 with MDA-MB-231, with T47D, in the assay on MCF7, with MOLT-4, in the assay on BT-549 and in the assay with A549 was > 100 µM (inactive) each time. Further, the GI50 in the assay on M14, in the assay with SK-MEL-5, in the assay with HOP-92, with CCRF-CEM, in the assay on ACHN and in the assay on OVCAR-3 was > 100 µM (inactive) each time. Further, the GI50 with SNB-19, with DU-145, in the assay on HT-29, in the assay with K562, in the assay with EKVX and in the assay with SF-268 was > 100 µM (inactive) in each case. The GI50 in the assay on SR was > 100 µM (inactive).
For `C1CCN(CCC2CCCCN2)CC1` (stereo not given), the GI50 in the assay on MDA-MB-231, in the assay on T47D, in the assay on MCF7, in the assay with MOLT-4, in the assay on BT-549 and in the assay on A549 was > 100 µM (inactive) throughout. Moreover, the GI50 with M14, in the assay on SK-MEL-5, with HOP-92, in the assay with CCRF-CEM, in the assay with ACHN and in the assay on OVCAR-3 was > 100 µM (inactive) throughout. Moreover, the GI50 in the assay on SNB-19, with DU-145, in the assay on HT-29, in the assay with K562, in the assay with EKVX and with SF-268 was > 100 µM (inactive) each time. Besides, in the assay on SR, the GI50 is > 100 µM (inactive).
Turning to `O=c1c2c3c(sc2nc2n1N=CN(c1ccc(F)cc1)C2)CCCC3`, the GI50 with MDA-MB-231, in the assay with T47D, in the assay on MCF7, in the assay with MOLT-4, in the assay with BT-549 and with A549 was > 100 µM (inactive) each time. The GI50 with M14, with SK-MEL-5, in the assay on HOP-92, with CCRF-CEM, in the assay with ACHN and in the assay with OVCAR-3 was > 100 µM (inactive) in each case. The GI50 in the assay on SNB-19, in the assay on DU-145, in the assay on HT-29, in the assay with K562, with EKVX and with SF-268 was > 100 µM (inactive) throughout. Further, the GI50 in the assay on SR was > 100 µM (inactive).
Turning to `COc1ccc(-n2c3c(c4c(CN(C)C)c(O)ccc42)C(=O)c2ccccc2C3=O)cc1`, the GI50 was 3.08 µM (inactive) in the assay on MDA-MB-231; 2.67 µM (inactive) in the assay with T47D; 7.18 µM (inactive) in the assay with MCF7; 3 µM (inactive) with MOLT-4; 13.6 µM (inactive) with BT-549; 4.68 µM (inactive) in the assay on A549. In addition, the GI50 in the assay on M14 was 3.54 µM (inactive); in the assay on SK-MEL-5, 1.69 µM (inactive); with HOP-92, 16 µM (inactive); in the assay with CCRF-CEM, 2.99 µM (inactive); in the assay with ACHN it was 2.17 µM (inactive); in the assay with OVCAR-3, 13.5 µM (inactive). Also, the GI50 in the assay with SNB-19 was 4.4 µM (inactive); in the assay on DU-145 it was 12.9 µM (inactive); in the assay on HT-29 it was 2.19 µM (inactive); in the assay on K562 it was 2.09 µM (inactive); in the assay with EKVX, 7.76 µM (inactive); in the assay on SF-268, 10.1 µM (inactive). Moreover, in the assay on SR, the GI50 was 2.45 µM (inactive).
Regarding `Cc1cc(C)nc(NC(=O)c2ccc(Br)s2)c1`, the GI50 was 21.7 µM (inactive) in the assay with MDA-MB-231; 31.9 µM (inactive) in the assay with T47D; 28 µM (inactive) in the assay with MCF7; > 100 µM (inactive) in the assay with MOLT-4; > 100 µM (inactive) with BT-549; 48.4 µM (inactive) in the assay with A549. Moreover, the GI50 was 21.3 µM (inactive) in the assay with M14; 5.13 µM (inactive) with SK-MEL-5; > 100 µM (inactive) with HOP-92; 3.37 µM (inactive) in the assay with CCRF-CEM; > 100 µM (inactive) with ACHN; > 100 µM (inactive) in the assay with OVCAR-3. Also, the GI50 was > 100 µM (inactive) in the assay with SNB-19; > 100 µM (inactive) in the assay with DU-145; > 100 µM (inactive) in the assay with HT-29; > 100 µM (inactive) in the assay with K562; 76.7 µM (inactive) with EKVX; > 100 µM (inactive) in the assay on SF-268. The GI50 in the assay with SR is > 100 µM (inactive).
On to `c1ccc2c(c1)Nc1ccccc1[P+]21c2ccccc2Nc2ccccc21`, for which the GI50 in the assay with MDA-MB-231 was 0.212 µM (active); in the assay on T47D, 0.11 µM (active); in the assay with MCF7, 0.489 µM (active); in the assay on MOLT-4, 0.0525 µM (active); in the assay on BT-549, 0.153 µM (active); in the assay on A549, 0.182 µM (active). Besides, the GI50 is 0.351 µM (active) in the assay on M14; 0.165 µM (active) with SK-MEL-5; 0.123 µM (active) in the assay on HOP-92; 0.158 µM (active) in the assay on CCRF-CEM; 1.86 µM (inactive) with ACHN; 0.195 µM (active) in the assay with OVCAR-3. Moreover, the GI50 in the assay on SNB-19 is 0.299 µM (active); in the assay on DU-145, 0.318 µM (active); in the assay with HT-29, 0.0853 µM (active); in the assay with K562 it was 0.212 µM (active); in the assay on EKVX it was 0.312 µM (active); in the assay on SF-268, 0.383 µM (active). In addition, in the assay with SR, the GI50 is 0.238 µM (active).
As for `c1ccc2c(c1)c1c(c3ccccc32)CN2CCCC2C1` (stereo not given), the GI50 is 3.2 µM (inactive) in the assay on MDA-MB-231; 1.5 µM (inactive) in the assay on T47D; 2.44 µM (inactive) with MCF7; 4.61 µM (inactive) in the assay on MOLT-4; 5.05 µM (inactive) with BT-549; 2.96 µM (inactive) in the assay with A549. Further, the GI50 in the assay on M14 was 3.67 µM (inactive); in the assay with SK-MEL-5, 3.51 µM (inactive); in the assay on HOP-92 it was 2.84 µM (inactive); in the assay on CCRF-CEM, 2.99 µM (inactive); in the assay with ACHN, 3.01 µM (inactive); with OVCAR-3 it was 3.26 µM (inactive). The GI50 in the assay on SNB-19 is 2.66 µM (inactive); with DU-145 it was 4.17 µM (inactive); in the assay on HT-29, 3.72 µM (inactive); with K562, 8.39 µM (inactive); in the assay on EKVX, 4.74 µM (inactive); in the assay on SF-268, 2.92 µM (inactive). In the assay with SR, the GI50 is 4.89 µM (inactive).
